Assay results: ChEMBL document CHEMBL1201862, “PubChem BioAssay data set” (2004)
Calls of active or inactive are those of the source.

Assays:
[1] = test system: Streptococcus sp. 'group A'; assay: growth inhibition of control SK(-) GAS strain, dose response, counter-screen for streptokinase expression inhibitor project, luminescence, kanamycin, BacTiterGlo, confirmation (AID 1900); format: functional, organism-based
Streptokinase A = biological target: T1, Streptokinase A (Streptococcus pyogenes serotype M1, UniProt P10520); assay: S. pyogenes streptokinase expression inhibitors, potency, dose response, plasminogen activation absorbance, OD405 (AID 1914); format: functional, Streptococcus pyogenes M1 GAS;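 also: secreted streptokinase activity via plasminogen activation per viability signal from cell pellet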
T1 sequence (P10520 whole entry): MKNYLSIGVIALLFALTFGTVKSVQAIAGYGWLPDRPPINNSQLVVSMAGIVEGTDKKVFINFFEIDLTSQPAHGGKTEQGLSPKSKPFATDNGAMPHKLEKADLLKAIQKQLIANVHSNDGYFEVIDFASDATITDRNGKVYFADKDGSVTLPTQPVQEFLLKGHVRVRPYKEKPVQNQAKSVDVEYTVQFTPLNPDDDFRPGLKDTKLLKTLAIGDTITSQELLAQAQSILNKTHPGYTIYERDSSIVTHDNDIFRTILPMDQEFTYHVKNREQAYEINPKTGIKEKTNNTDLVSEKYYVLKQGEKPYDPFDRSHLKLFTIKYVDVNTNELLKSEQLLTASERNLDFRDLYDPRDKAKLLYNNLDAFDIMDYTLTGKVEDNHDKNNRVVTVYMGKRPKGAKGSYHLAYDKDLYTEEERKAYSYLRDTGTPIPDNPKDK

Streptococcus = assay: Group A Streptococcus viability loss, dose response, counter-screen for streptokinase expression inhibitor project, luminescence, BacTiterGlo (AID 1915); format: functional, organism-based;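 also: potency for reduction of bacterial viability or growth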
[2] = biological target: Voltage-dependent T-type calcium channel subunit alpha-1H (Homo sapiens, UniProt O95180); format: functional;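 also: channel activity triggered by adding a high calcium stimulation buffer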
[3] = inhibitors of HIV Env-driven cell fusion, dose response, cherry-pick (AID 652057); format: functional, cell-based
[4] = ZM109 Env clade C HIV-1 fusion inhibitors, dose response, HeLa effector, CEM target cells, luciferase, cherry-pick (AID 652058); format: functional, cell-based
[5] = off-target signal loss in HeLa-CEM21 co-culture – HeLa F-luc CTL cells, cherry-picked, counter-screen for HIV-1 Env fusion inhibitor project, dose response (AID 652040); format: functional, cell-based;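 also: potency for signal decrease marking cytotoxic or nonspecific inhibition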
[6] = inhibitors of clade B AD8 Env fusion, dose response, cell-based, cherry-pick (AID 652062); format: functional;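 also: luciferase signal from cell-cell fusion driven by HIV-1 clade B AD8 Env; potency is for inhibitors of fusion seen as a drop in luminescence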
[7] = biological target: DNA dC->dU-editing enzyme APOBEC-3A (Homo sapiens, UniProt P31941); assay: Dose Response confirmation of small molecule APOBEC3A DNA Deaminase Inhibitors via a fluorescence-based single-stranded DNA deaminase assay. [Related pubchem assays (depositor defined):AID493011, AID493024]; format: functional
[8] = biological target: DNA dC->dU-editing enzyme APOBEC-3G (Homo sapiens, UniProt Q9HC16); format: functional;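 also: Dose-response counterscreen measuring inhibition of APOBEC3G DNA deaminase activity, run while confirming APOBEC3A inhibitors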
Cytochrome P450 1A2 = biological target: T2, Cytochrome P450 1A2 (Homo sapiens, UniProt P05177);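 also: PubChem cytochrome P450 panel assay, CYP1A2 panel member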
T2 sequence (P05177 whole entry): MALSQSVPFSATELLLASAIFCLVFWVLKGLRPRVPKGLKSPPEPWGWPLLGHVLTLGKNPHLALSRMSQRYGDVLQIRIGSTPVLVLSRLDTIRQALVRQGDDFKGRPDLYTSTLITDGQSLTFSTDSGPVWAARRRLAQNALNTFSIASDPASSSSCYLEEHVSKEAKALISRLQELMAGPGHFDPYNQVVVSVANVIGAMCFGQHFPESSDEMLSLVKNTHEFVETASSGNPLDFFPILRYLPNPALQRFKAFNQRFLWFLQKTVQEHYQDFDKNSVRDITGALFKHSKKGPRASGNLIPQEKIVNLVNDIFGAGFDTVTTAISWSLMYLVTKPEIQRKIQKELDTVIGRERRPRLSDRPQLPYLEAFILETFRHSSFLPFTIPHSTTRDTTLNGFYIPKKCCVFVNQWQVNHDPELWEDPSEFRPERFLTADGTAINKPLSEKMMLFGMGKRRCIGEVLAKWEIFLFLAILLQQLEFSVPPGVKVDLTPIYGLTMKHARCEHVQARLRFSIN

Cytochrome P450 3A4 = Cytochrome P450 3A4 (Homo sapiens, UniProt P08684);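 also: CYP3A4 tested as one member of a cytochrome P450 panel screen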
[9] = biological target: T3, Long-chain-fatty-acid--AMP ligase FadD28 (Mycobacterium tuberculosis, UniProt P9WQ59); assay: Fluorescence polarization aasay to screen for inhibitors that compete for the binding of FadD28 to a bisubstrate Measured in Biochemical System Using Plate Reader - 2147-01_Inhibitor_Dose_CherryPick_Activity.; format: functional, Mycobacterium tuberculosis H37Rv
T3 sequence (P9WQ59 whole entry): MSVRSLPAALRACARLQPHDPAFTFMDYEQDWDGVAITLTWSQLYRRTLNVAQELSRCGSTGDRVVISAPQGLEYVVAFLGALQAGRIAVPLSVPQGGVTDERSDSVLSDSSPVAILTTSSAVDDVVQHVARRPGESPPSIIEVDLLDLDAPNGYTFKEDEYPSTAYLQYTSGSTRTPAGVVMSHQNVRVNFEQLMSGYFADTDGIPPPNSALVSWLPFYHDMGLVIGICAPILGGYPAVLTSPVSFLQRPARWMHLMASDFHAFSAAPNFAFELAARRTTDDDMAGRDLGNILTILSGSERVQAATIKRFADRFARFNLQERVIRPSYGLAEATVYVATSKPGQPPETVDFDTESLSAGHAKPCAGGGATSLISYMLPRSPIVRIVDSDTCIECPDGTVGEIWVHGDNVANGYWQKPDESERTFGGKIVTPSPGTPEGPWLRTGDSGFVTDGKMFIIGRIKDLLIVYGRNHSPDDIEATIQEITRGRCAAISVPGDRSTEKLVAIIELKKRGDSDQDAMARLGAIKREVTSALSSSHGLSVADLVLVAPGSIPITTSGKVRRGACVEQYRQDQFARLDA

[10] = inhibitors of intracellular T. cruzi replication, confirmation, NIH3T3 host cells, beta-gal luminescence (AID 2044); format: functional, cell-based;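 also: intracellular parasites grown in NIH/3T3 mouse fibroblasts as host cells; luminescent beta-galactosidase reporter signal from transgenic T. cruzi replicating inside host cells; inhibitors lower the luminescence signal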
[11] = cytotoxicity toward NIH3T3 fibroblasts, dose response, counter-screen, cell-based, ATP luminescence, mouse fibroblasts (AID 2010); format: functional;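 also: cells exposed to compound for about 90 hours before reading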
[12] = biological target: T4, Heat shock factor protein 1 (Mus musculus, UniProt P38532); assay: HSF1 potentiators in luciferase reporter cells, confirmation, cell-based, NIH3T3, luminescence, dose retest (AID 435004); format: functional;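 also: stress induced by proteasome inhibitor MG132 added 30 min after compound; luciferase reporter driven by HSF1 response element in NIH3T3 cells; actives raise luminescence as potentiators of the MG132 stress response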
T4 sequence (P38532 whole entry): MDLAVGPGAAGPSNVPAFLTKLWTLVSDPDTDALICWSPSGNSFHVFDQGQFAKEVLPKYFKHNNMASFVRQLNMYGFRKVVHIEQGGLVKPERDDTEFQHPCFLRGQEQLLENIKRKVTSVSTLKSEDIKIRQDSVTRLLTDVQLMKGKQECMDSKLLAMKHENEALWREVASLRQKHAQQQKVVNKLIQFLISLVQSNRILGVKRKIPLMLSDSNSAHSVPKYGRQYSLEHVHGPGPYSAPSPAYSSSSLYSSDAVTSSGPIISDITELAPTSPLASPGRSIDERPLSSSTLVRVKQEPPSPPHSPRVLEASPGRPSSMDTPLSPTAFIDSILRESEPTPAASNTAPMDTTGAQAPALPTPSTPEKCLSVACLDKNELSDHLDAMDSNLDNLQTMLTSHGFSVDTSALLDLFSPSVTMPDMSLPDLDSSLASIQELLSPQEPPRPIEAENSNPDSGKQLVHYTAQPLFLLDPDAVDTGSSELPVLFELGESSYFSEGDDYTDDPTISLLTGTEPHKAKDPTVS

INS1 = assay: beta cell apoptosis inhibitors, cytokine rescue, dose response, luminescence, retest (AID 449756); format: functional, cell-based; details: Rattus norvegicus;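 also: cell death triggered by IL-1 beta plus TNF-alpha plus IFN-gamma mixture; protective hits raise ATP signal compared with cytokine alone wells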
cells = format: functional
[13] = biological target: T5, Calpain-2 catalytic subunit (Sus scrofa, UniProt P43367); assay: pig calpain II inhibitor potency, dose response, biochemical, fluorogenic peptide substrate (AID 1420); format: functional
T5 sequence (P43367 whole entry): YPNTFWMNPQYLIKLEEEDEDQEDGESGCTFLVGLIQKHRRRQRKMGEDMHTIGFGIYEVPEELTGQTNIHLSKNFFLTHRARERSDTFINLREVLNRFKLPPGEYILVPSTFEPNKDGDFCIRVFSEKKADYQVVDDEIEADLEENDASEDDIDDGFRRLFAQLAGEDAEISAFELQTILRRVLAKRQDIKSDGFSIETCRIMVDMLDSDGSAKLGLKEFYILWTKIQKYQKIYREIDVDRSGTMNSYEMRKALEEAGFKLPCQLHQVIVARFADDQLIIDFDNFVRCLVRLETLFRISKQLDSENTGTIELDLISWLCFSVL

Paired box protein Pax-8 = Paired box protein Pax-8 (Homo sapiens, UniProt Q06710); assay: inhibitors of PAX8-driven TPO luciferase reporter, dose response, RMG-I cells, cherry-pick (AID 687027); format: functional, cell-based;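 also: luciferase reporter driven by Pax8 target thyroperoxidase promoter measured by SteadyGlo luminescence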
Cytochrome P450 2D6 = Cytochrome P450 2D6 (Homo sapiens, UniProt P10635);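 also: CYP2D6 member of a cytochrome P450 panel assay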
Cytochrome P450 2C9 = Cytochrome P450 2C9 (Homo sapiens, UniProt P11712)
Chain of Cytochrome P450 2C9 (P11712 whole entry): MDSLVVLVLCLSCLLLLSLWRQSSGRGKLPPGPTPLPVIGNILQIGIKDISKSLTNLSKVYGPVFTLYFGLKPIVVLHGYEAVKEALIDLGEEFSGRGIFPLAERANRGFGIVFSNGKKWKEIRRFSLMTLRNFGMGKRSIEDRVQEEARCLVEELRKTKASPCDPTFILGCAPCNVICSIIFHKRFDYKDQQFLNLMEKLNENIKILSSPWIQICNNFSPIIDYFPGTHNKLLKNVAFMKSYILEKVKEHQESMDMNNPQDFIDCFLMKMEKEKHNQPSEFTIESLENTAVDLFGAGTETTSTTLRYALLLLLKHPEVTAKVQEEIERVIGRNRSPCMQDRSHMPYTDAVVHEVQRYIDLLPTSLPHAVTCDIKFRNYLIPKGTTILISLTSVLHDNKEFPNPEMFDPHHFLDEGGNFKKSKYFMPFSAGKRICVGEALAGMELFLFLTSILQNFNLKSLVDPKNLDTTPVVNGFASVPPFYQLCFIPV

Chain of DNA dC->dU-editing enzyme APOBEC-3G (Q9HC16 whole entry): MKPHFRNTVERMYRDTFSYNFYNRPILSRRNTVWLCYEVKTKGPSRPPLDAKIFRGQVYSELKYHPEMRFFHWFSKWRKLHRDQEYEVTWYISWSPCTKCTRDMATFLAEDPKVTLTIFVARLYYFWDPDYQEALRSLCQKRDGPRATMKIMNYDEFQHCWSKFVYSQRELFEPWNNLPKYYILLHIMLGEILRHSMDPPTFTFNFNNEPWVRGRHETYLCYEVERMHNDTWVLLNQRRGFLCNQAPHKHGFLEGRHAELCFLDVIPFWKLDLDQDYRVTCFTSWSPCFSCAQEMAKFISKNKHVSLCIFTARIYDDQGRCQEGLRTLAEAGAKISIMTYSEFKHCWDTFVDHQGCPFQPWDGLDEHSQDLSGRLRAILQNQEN
Chain of Cytochrome P450 3A4 (P08684 whole entry): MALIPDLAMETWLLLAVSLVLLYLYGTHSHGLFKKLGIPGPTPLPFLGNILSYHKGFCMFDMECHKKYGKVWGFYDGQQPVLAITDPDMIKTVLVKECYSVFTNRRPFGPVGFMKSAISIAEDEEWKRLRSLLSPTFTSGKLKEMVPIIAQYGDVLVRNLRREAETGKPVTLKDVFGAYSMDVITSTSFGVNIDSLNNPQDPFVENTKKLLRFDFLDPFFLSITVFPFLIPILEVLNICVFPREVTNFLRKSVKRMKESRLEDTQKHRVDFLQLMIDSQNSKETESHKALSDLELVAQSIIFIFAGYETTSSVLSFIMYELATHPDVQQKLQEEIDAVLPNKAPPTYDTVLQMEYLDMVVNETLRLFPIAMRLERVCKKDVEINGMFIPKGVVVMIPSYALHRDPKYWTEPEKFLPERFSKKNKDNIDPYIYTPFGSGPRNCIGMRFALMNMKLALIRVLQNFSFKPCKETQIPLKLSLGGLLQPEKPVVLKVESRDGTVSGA
Chain of Voltage-dependent T-type calcium channel subunit alpha-1H (O95180 whole entry, the tested form may be a part): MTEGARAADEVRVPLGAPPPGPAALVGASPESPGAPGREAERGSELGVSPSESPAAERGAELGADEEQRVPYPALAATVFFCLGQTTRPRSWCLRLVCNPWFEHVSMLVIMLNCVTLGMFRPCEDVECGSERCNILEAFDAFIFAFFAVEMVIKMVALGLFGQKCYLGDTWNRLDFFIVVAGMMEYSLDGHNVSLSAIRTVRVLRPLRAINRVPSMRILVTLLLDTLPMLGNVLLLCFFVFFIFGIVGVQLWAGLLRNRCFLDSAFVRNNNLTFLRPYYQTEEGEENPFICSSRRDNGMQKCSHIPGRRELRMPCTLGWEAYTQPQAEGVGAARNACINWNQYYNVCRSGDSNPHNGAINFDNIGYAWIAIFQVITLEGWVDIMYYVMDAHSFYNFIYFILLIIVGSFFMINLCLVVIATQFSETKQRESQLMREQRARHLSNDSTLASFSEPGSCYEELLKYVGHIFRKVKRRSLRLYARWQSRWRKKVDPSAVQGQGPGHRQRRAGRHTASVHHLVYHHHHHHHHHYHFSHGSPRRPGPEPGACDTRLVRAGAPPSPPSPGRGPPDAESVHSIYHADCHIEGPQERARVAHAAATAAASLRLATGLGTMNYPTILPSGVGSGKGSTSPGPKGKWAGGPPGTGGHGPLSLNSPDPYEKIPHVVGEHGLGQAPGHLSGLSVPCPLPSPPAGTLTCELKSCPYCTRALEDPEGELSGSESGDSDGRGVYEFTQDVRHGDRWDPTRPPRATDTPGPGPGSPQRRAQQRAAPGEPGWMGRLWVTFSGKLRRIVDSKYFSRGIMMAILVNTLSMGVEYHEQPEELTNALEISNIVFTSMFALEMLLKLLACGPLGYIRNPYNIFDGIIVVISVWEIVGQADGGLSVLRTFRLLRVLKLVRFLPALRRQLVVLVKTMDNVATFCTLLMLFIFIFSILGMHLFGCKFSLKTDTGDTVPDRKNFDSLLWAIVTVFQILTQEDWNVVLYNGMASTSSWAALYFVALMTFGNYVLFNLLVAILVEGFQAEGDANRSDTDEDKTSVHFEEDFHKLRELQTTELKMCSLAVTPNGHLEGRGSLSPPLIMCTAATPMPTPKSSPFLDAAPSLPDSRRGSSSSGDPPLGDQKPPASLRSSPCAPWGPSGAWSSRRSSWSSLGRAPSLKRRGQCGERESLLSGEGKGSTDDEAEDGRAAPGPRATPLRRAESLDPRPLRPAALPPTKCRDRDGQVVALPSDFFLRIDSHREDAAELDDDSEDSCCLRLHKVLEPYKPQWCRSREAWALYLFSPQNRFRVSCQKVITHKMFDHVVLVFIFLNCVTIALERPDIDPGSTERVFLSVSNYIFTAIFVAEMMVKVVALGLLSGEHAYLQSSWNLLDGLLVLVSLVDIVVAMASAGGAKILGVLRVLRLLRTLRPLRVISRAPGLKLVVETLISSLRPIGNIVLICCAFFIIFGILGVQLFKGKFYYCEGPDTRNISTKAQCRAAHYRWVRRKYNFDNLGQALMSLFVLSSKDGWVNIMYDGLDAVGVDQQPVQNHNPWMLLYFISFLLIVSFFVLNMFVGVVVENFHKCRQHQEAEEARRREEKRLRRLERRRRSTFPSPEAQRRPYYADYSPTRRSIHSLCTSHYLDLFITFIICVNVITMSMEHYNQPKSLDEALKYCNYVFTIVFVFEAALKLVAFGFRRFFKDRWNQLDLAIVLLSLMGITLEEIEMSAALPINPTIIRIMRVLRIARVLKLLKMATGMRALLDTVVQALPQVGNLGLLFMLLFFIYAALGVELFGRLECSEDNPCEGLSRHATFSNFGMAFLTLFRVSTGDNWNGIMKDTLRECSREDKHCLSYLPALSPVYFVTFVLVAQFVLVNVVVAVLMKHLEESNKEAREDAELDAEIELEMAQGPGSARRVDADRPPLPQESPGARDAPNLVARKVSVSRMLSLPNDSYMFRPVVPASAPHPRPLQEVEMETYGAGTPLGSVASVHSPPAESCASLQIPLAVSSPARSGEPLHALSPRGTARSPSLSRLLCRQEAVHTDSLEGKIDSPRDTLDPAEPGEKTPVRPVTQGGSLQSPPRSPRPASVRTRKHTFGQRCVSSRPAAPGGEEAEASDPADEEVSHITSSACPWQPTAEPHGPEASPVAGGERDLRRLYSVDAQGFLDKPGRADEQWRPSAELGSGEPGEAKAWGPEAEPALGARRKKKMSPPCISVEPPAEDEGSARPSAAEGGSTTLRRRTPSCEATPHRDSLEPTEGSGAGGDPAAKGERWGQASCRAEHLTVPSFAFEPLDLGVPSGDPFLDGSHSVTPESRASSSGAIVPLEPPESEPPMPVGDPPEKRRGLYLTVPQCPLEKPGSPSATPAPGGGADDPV
Chain of DNA dC->dU-editing enzyme APOBEC-3A (P31941 whole entry): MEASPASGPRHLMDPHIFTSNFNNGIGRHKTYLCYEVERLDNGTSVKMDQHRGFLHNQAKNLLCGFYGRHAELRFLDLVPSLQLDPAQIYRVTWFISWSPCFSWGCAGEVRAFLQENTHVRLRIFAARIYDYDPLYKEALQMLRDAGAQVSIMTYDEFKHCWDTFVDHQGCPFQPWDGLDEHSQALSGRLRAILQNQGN
Chain of Paired box protein Pax-8 (Q06710 whole entry): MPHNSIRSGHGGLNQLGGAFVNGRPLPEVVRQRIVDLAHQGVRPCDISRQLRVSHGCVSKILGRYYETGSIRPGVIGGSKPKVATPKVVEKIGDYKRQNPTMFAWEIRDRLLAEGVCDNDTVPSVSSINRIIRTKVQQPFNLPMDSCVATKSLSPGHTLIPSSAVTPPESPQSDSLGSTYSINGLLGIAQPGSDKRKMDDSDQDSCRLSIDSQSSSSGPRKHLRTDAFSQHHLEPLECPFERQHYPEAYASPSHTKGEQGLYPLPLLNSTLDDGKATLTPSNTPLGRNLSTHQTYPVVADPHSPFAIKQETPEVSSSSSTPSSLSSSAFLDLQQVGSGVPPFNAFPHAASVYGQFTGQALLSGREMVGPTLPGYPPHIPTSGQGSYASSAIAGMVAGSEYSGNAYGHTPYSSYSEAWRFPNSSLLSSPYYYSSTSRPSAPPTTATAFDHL
Chain of Cytochrome P450 2D6 (P10635 whole entry): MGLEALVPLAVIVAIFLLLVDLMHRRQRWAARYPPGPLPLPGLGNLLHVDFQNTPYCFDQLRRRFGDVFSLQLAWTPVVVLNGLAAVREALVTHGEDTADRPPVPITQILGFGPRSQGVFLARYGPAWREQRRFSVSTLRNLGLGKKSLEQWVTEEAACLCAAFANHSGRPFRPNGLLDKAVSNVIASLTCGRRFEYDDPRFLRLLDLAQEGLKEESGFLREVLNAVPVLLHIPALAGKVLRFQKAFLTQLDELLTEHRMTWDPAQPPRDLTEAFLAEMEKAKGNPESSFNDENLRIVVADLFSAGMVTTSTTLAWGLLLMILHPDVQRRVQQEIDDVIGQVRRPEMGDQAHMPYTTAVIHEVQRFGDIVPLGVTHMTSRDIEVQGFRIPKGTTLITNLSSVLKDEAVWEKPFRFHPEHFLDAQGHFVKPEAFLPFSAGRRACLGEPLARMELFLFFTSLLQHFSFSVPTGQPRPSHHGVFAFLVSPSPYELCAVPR

For `O=C(CN1CCc2ccccc2C1)Nc1ccccc1N1CCCCCC1`, the EC50 [1] was 6.54 µM (active), the EC50 (Streptokinase A) was 13 µM (active) and the EC50 (Streptococcus) was 13.3 µM (active). The EC50 [2] was 8.39 µM (active).

In the case of `Cc1ccc(N2C(=O)N3[C@H](c4cccc(C)c4)[C@@H]4C(=O)N(Cc5ccccc5)C(=O)[C@@H]4[C@]3(C)C2=O)cc1`, the AC50 [3] is reported as 3.36 µM (active), the AC50 [4] is reported as 1.2 µM (active) and the AC50 [5] is reported as 3.88 µM (active). The AC50 [6] was 2.33 µM (active).

With `O=C(Nc1ccc(N2CCN(C(=O)c3ccccc3)CC2)c(Cl)c1)c1cccnc1` the EC50 [1] was 12.4 µM (active), the EC50 (Streptokinase A) was > 150 µM (not active) and the EC50 (Streptococcus) was 14.7 µM (active). For the same compound, the AC50 [5] was 20.5 µM (active) and the AC50 [6] was 12.6 µM (active).

With `Cc1ccc2cc(C#N)c(NCCNC(=O)C3CC3)nc2c1C` the AC50 [3] was 4.5 µM (active), the AC50 [4] was 4.47 µM (active) and the AC50 [5] was 2.96 µM (active). For the same compound, the AC50 [6] was 6.25 µM (active).

For `O=C(CCC1N=C2c3ccccc3N=C(SCc3ccccc3Cl)N2C1=O)NCc1ccco1` (stereo not drawn), the EC50 [2] was 14 µM (active).

With `O=C(Nc1nnc(-c2ccc3c(c2)CCCC3)o1)C1COc2ccccc2O1` (stereo not drawn) the EC50 [2] was 1.37 µM (active).

In the case of `O=C(CSc1nnnn1-c1ccccc1)N1CCc2ccccc21`, the IC50 [7] is reported as 6.17 µM (active) and the IC50 [8] is reported as 4.32 µM (active).

For `Cc1ccc(C)c(CS(=O)(=O)c2cn(CC(=O)N3CCC(C)CC3)c3ccccc23)c1`, the AC50 [3] was 2.82 µM (active), the AC50 [4] was 3.03 µM (active) and the AC50 [5] was 3.13 µM (active). For the same compound, the AC50 [6] was 2.04 µM (active).

In the case of `O=C(c1cccc(F)c1)N1CCC2(CC1)CCN(c1cccc(-c3ccccc3)c1)CC2`, the AC50 (Cytochrome P450 1A2) is reported as 20 µM (inconclusive) and the AC50 (Cytochrome P450 3A4) is reported as “inconclusive”.

With `O=C(NCCSCc1ccccc1)c1ccc(Cl)c(S(=O)(=O)N2CCOCC2)c1` the AC50 [9] was > 100 µM (inactive).

In the case of `N=c1c2c(-c3ccccc3)c(-c3ccccc3)n(Cc3ccco3)c2ncn1CCCN1CCOCC1`, the EC50 [10] is reported as 1.49 µM (active), the EC50 [11] is reported as > 60 µM (not active) and the EC50 [12] is reported as > 260 µM (inactive). For the same compound, the AC50 (INS1) was 14.3 µM (active) and the AC50 [9] was 77.3 µM (active).

In the case of `COc1cccc(OCC(O)CN2CCC(Cc3ccccc3)CC2)c1` (stereo not drawn), the EC50 [2] is reported as 4.62 µM (active).

For `CC(=O)c1ccc(S(=O)(=O)N2Cc3ccccc3CC2C(=O)O)cc1` (stereo not drawn), the IC50 [7] was 14 µM (active) and the IC50 [8] was 43.7 µM (active).

In the case of `CC(C)(C)c1ccc(OCCC(=O)Nc2cccc(S(=O)(=O)N3CCOCC3)c2)cc1`, the AC50 [3] is reported as 22.2 µM (active), the AC50 [5] is reported as 48.2 µM (active) and the AC50 [6] is reported as 53.1 µM (active).

In the case of `COc1ccc2[nH]c(O)c(N=O)c2c1`, the IC50 [7] is reported as 2.64 µM (active) and the IC50 [8] is reported as 4.41 µM (active).

With `Cc1ccc(CNC(=O)C(Cc2ccccc2)NS(=O)(=O)c2ccc(Br)s2)cc1` (stereo not drawn) the AC50 [9] was 6.7 µM (active).

With `CN1CCN(c2ccc(Cl)cc2NC(=O)CC2OC(=O)c3ccccc32)CC1` (stereo not drawn) the IC50 [7] was 3.24 µM (active) and the IC50 [8] was 2.9 µM (active).

In the case of `CC(/C=C(\O)c1ccncc1)=N\c1ccccc1O`, the EC50 [2] is reported as 3.26 µM (active) and the IC50 (cells) is reported as 3.1 µM (active).

For `COc1cc(/C=N/NS(=O)(=O)c2ccc(C)cc2)ccc1OCc1ccc(C(=O)O)cc1`, the IC50 [13] was > 50 µM (not active), the AC50 [3] was 2.5 µM (active) and the AC50 [4] was 16.1 µM (active). The AC50 (Paired box protein Pax-8) was 23.9 µM (active), the AC50 [5] was 3.18 µM (active) and the AC50 [6] was 8.31 µM (active).

For `Cc1c(C2CCN(CCc3ccccc3)CC2)noc1-c1ccc(Cl)cc1`, the AC50 (Cytochrome P450 2D6) was 1.58 µM (inconclusive), the AC50 (Cytochrome P450 1A2) was 25.1 µM (inconclusive) and the AC50 (Cytochrome P450 3A4) was “inconclusive”.

For `Cc1cccc(C)c1NC(=O)CN1CCN(CCCC(c2ccc(F)cc2)c2ccc(F)cc2)CC1` [LIDOFLAZINE], the AC50 (Cytochrome P450 1A2) was 15.8 µM (inconclusive), the AC50 (Cytochrome P450 2C9) was 15.8 µM (inconclusive) and the AC50 (Cytochrome P450 3A4) was “inconclusive”.
